Values quoted from earlier work in patent US20240189234A1, “SILICON PARTICLES FOR DRUG DELIVERY” (NACAMED AS, priority 2021, published 2024).

Settings: calculated log P values from Foye's Principles of Medicinal Chemistry

SMILES | log P
CCN(CC)CCN1C(=O)CN=C(c2ccccc2F)c2cc(Cl)ccc21 [flurazepam] | 4.84
CCN(CC)CCCC(C)Nc1cc(OC)cc2cccnc12 (stereo not drawn) [pamaquine] | 4.38
Oc1ccc2c(c1)[C@@]13CCCC[C@@]1(O)[C@@H](C2)N(CC1CCC1)CC3 [butorphanol] | 3.54
CCOC(=O)OC(C)OC(=O)[C@@H]1N2C(=O)[C@@H](NC(=O)[C@H](N)c3ccccc3)[C@H]2SC1(C)C (stereo partly drawn) [bacampicillin] | 3.52
CC(C)C(=O)Oc1ccc(CO)cc1[C@H](CCN(C(C)C)C(C)C)c1ccccc1 [fesoterodine] | 5.08
CNC1(c2ccccc2Cl)CCCCC1=O (stereo not drawn) [ketamine] | 3.01
CNCCC=C1c2ccccc2CCc2ccccc21 [nortriptyline] | 3.97
CN(C)CC/C=C1/c2ccccc2Sc2ccc(Cl)cc21 [chlorprothixene] | 5.31
N#CC(CCN1CCC(C(=O)O)(c2ccccc2)CC1)(c1ccccc1)c1ccccc1 [diphenoxin] | 3.97
CCN(CC)C(=O)/C(C#N)=C/c1cc(O)c(O)c([N+](=O)[O-])c1 [entacapone] | 3.02
CC(=O)O[C@H]1C[C@@]2(C)[C@@H](C[C@@H](O)[C@H]3[C@@]4(C)CC[C@@H](O)[C@@H](C)[C@@H]4CC[C@@]32C)/C1=C(\CCC=C(C)C)C(=O)O [fusidic acid] | 5.76
CN1CCC(OC(c2ccccc2)c2ccccc2)CC1 [diphenylpyraline] | 3.43
Cc1ccc(/C(=C\CN2CCCC2)c2ccccn2)cc1 [triprolidine] | 3.25
CCNC(C)Cc1cccc(C(F)(F)F)c1 (stereo not drawn) [fenfluramine] | 3.55
CCCN(CC)C(CC)C(=O)Nc1c(C)cccc1C (stereo not drawn) [etidocaine] | 3.57
O=C(O)COc1ccc(C(=O)c2cccs2)c(Cl)c1Cl [ticrynfen] | 3.05
CCCCCCC(C)(C)c1cc(O)c2c(c1)OC(C)(C)C1CCC(=O)CC21 (stereo not drawn) [nabilone] | 7.25
Cc1ccsc1C(=CCCN1CCC[C@@H](C(=O)O)C1)c1sccc1C [tiagabine] | 4.03

SMILES | log P
O=C(O)Cc1ccccc1Oc1ccc(Cl)cc1Cl [fenclofenac] | 4.59
CCC(=O)O[C@](Cc1ccccc1)(c1ccccc1)[C@H](C)CN(C)C [propoxyphene] | 4.10
O=C(O)c1ccccc1Nc1cccc(C(F)(F)F)c1 [flufenamic acid] | 5.22
CC(CN(C)C)CN1c2ccccc2Sc2ccccc21 (stereo not drawn) [trimeprazine] | 5.04
CCCCN1CCCCC1C(=O)Nc1c(C)cccc1C (stereo not drawn) [bupivacaine] | 3.31
CN(C)CCC=C1c2ccccc2CCc2ccccc21 [amitriptyline] | 4.41
O=c1[nH]c2ccccc2n1C1CCN(CCCC(c2ccc(F)cc2)c2ccc(F)cc2)CC1 [pimozide] | 5.57
CC(C)(C)NC(=O)[C@H]1CC[C@H]2[C@@H]3CC[C@H]4NC(=O)C=C[C@]4(C)[C@H]3CC[C@]12C [finasteride] | 3.83
Clc1ccccc1C(c1ccccc1)(c1ccccc1)n1ccnc1 [clotrimazole] | 4.92
CN(C)CCCN1c2ccccc2Sc2ccccc21 [promazine] | 4.69
C[C@]12CC[C@@H]3c4ccc(O)cc4CC[C@H]3[C@@H]1CCC2=O [estrone] | 3.62
N[C@@H](Cc1cc(I)c(Oc2ccc(O)c(I)c2)c(I)c1)C(=O)O [liothyronine] | 3.91
CN1CCC(CN2c3ccccc3Sc3ccccc32)C1 (stereo not drawn) [methdilazine] | 4.64
CC(C)C(=O)Nc1ccc([N+](=O)[O-])c(C(F)(F)F)c1 [flutamide] | 3.52
c1ccc(C2(N3CCCCC3)CCCCC2)cc1 [phencyclidine] | 4.25
CC(=O)OCCN1CCN(CCCN2c3ccccc3Sc3ccc(Cl)cc32)CC1 [thiopropazate] | 4.76
C=CCN1CC[C@]23CCCC[C@H]2[C@H]1Cc1ccc(O)cc13 [levallorphan] | 3.85
CC(C(=O)O)c1cccc(Oc2ccccc2)c1 (stereo not drawn) [fenoprofen] | 3.72
